pEC50: −log10 of the molar value. Active and inactive are the calls of the source. No cut-off for these calls is given here.
Experiments:
PC-12 [1] = experiment: Neuroprotective activity against glutamate induced excitotoxicity in rat PC12 cells assessed as cell survival at 20 uM pretreated with glutamate for 24 hrs followed by compound addition and measured after 24 hrs; assay type: functional; conditions: read-out: Survival
PC-12 [2] = experiment: Neuroprotective activity in rat PC12 cells assessed as protection against glutamate induced excitotoxicity at 20 uM pretreated with glutamate for 24 hrs followed by compound addition and measured after 24 hrs; assay type: functional
PC-12 [3] = experiment: Neuroprotective activity against H2O2-induced oxidative damage in rat PC12 cells assessed as increase in cell survival at 20 uM pretreated with H2O2 for 24 hrs followed by compound addition and measured after 24 hrs; assay type: functional; conditions: read-out: Survival
PC-12 [4] = experiment: Neuroprotective activity against H2O2-induced oxidative damage in rat PC12 cells at 20 uM pretreated with H2O2 for 24 hrs followed by compound addition and measured after 24 hrs; assay type: functional
PC-12 [5] = experiment: Neuroprotective activity against glutamate induced excitotoxicity in rat PC12 cells pretreated with glutamate for 24 hrs followed by compound addition and measured after 24 hrs; assay type: functional, cell-based
PC-12 [6] = experiment: Neuroprotective activity against H2O2-induced oxidative damage in rat PC12 cells pretreated with H2O2 for 24 hrs followed by compound addition and measured after 24 hrs; assay type: functional, cell-based
PC-12 [7] = experiment: Cytotoxicity against rat PC12 cells assessed as reduction in cell viability incubated for 24 hrs by MTT assay; assay type: functional, cell-based

Row | Structure (SMILES) | viability at 20 µM (PC-12 [1]) [%] | Activity (PC-12 [2]) [%] | viability at 20 µM (PC-12 [3]) [%] | Activity (PC-12 [4]) [%] | pEC50 (PC-12 [5]) | pEC50 (PC-12 [6]) | Activity (PC-12 [7])
1 | COc1c(OC(=O)N(CC2CC2)c2cccc(F)c2)cc2oc3cc4c(c(O)c3c(=O)c2c1CC=C(C)C)C=CC(C)(C)O4 | 69.2 | 55.65 | 74.4 | 42.67 | 4.76 | 4.61 | 
2 | COc1c(OC(=O)N(C)c2cccc(Cl)c2)cc2oc3cc4c(c(O)c3c(=O)c2c1CC=C(C)C)C=CC(C)(C)O4 | 31.6 | 1.57 | 58.2 | 6.23 |  |  | 
3 | CCN(C(=O)Oc1cc2oc3cc4c(c(O)c3c(=O)c2c(CC=C(C)C)c1OC)C=CC(C)(C)O4)c1ccccc1 | 57 | 38.13 | 65.1 | 21.74 |  |  | 
4 | COc1ccc(N(C)C(=O)Oc2cc3oc4cc5c(c(O)c4c(=O)c3c(CC=C(C)C)c2OC)C=CC(C)(C)O5)cc1 | 49.2 | 26.88 | 62.5 | 16 |  |  | 
5 | CC1=NN(c2ccccc2)C(=O)C1 [EDARAVONE] |  |  | 80.5 | 56.36 |  |  | 
6 | COc1c(OC(=O)N(C)c2ccccc2)cc2oc3cc4c(c(OCc5ccc(C(F)(F)F)cc5)c3c(=O)c2c1CC=C(C)C)C=CC(C)(C)O4 | 35 | 6.46 | 60.9 | 12.35 |  |  | 
7 | COc1c(OC(=O)N(CC2CC2)c2cccc(C)c2)cc2oc3cc4c(c(O)c3c(=O)c2c1CC=C(C)C)C=CC(C)(C)O4 | 54.9 | 35.08 | 73 | 39.49 |  |  | 
8 | COc1c(OC(=O)N(C)c2ccccc2)cc2oc3cc4c(c(OCc5ccc(F)cc5)c3c(=O)c2c1CC=C(C)C)C=CC(C)(C)O4 | 31 | 0.01 | 65.5 | 22.59 |  |  | 
9 | CCc1ccccc1N(C)C(=O)Oc1cc2oc3cc4c(c(O)c3c(=O)c2c(CC=C(C)C)c1OC)C=CC(C)(C)O4 | 55.1 | 35.36 | 63.1 | 17.35 |  |  | 
10 | CCc1cccc(N(C)C(=O)Oc2cc3oc4cc5c(c(O)c4c(=O)c3c(CC=C(C)C)c2OC)C=CC(C)(C)O5)c1 | 56.3 | 37.14 | 60.7 | 11.9 |  |  | 
11 | COc1c(OC(=O)N(CC2CC2)c2ccccc2)cc2oc3cc4c(c(O)c3c(=O)c2c1CC=C(C)C)C=CC(C)(C)O4 | 68 | 53.91 | 74.2 | 42.11 | 4.68 | 4.53 | 
12 | COc1c(OC(=O)N(C)c2cccc(Br)c2)cc2oc3cc4c(c(O)c3c(=O)c2c1CC=C(C)C)C=CC(C)(C)O4 | 33.1 | 3.74 | 57.7 | 5.11 |  |  | 
13 | COc1c(OC(=O)N(C)c2cccc(F)c2)cc2oc3cc4c(c(O)c3c(=O)c2c1CC=C(C)C)C=CC(C)(C)O4 | 67.8 | 53.62 | 60.9 | 12.46 | 4.71 |  | 
14 | COc1c(OC(=O)N(CC2CC2)c2ccc(C)cc2)cc2oc3cc4c(c(O)c3c(=O)c2c1CC=C(C)C)C=CC(C)(C)O4 | 64 | 48.26 | 69 | 30.57 |  |  | 
15 | COc1c(OC(=O)N(C)c2cccc(Cl)c2)cc2oc3cc4c(c(OC)c3c(=O)c2c1CC=C(C)C)C=CC(C)(C)O4 | 36 | 7.91 | 68 | 28.17 |  |  | 
16 | COc1c(OC(=O)N(C)c2ccccc2C)cc2oc3cc4c(c(OC)c3c(=O)c2c1CC=C(C)C)C=CC(C)(C)O4 | 52.3 | 31.44 | 69.3 | 31.11 |  |  | 
17 | COc1c(OC(=O)N(C)c2ccccc2)cc2oc3c(CN4CCN(C)CC4)c4c(c(O)c3c(=O)c2c1CC=C(C)C)C=CC(C)(C)O4 |  |  |  |  |  |  | Active

Row | Structure (SMILES) | viability at 20 µM (PC-12 [1]) [%] | Activity (PC-12 [2]) [%] | viability at 20 µM (PC-12 [3]) [%] | Activity (PC-12 [4]) [%] | pEC50 (PC-12 [5]) | pEC50 (PC-12 [6]) | Activity (PC-12 [7])
18 | COc1c(OC(=O)N(CC2CC2)c2cccc(Cl)c2)cc2oc3cc4c(c(O)c3c(=O)c2c1CC=C(C)C)C=CC(C)(C)O4 | 62.9 | 46.68 | 75.9 | 45.94 |  | 4.58 | 
19 | COc1c(OC(=O)N(C)c2ccc(F)cc2)cc2oc3cc4c(c(O)c3c(=O)c2c1CC=C(C)C)C=CC(C)(C)O4 | 67.2 | 52.82 | 74.7 | 43.32 | 4.67 | 4.54 | 
20 | CCc1ccc(N(C)C(=O)Oc2cc3oc4cc5c(c(O)c4c(=O)c3c(CC=C(C)C)c2OC)C=CC(C)(C)O5)cc1 | 50.8 | 29.26 | 65.5 | 22.79 |  |  | 
21 | COc1c(OC(=O)N(C)c2ccccc2F)cc2oc3cc4c(c(O)c3c(=O)c2c1CC=C(C)C)C=CC(C)(C)O4 | 60.9 | 43.78 | 70.9 | 34.69 |  |  | 
22 | COc1c(OC(=O)N(CC2CC2)c2ccccc2C)cc2oc3cc4c(c(O)c3c(=O)c2c1CC=C(C)C)C=CC(C)(C)O4 | 30.5 | 0 | 60.6 | 11.7 |  |  | 
23 | COc1c(OC(=O)N(C)c2ccc(C)cc2)cc2oc3cc4c(c(O)c3c(=O)c2c1CC=C(C)C)C=CC(C)(C)O4 | 50.7 | 29.08 | 63 | 17.03 |  |  | 
24 | COc1cccc(N(C)C(=O)Oc2cc3oc4cc5c(c(O)c4c(=O)c3c(CC=C(C)C)c2OC)C=CC(C)(C)O5)c1 | 52.6 | 31.84 | 59.6 | 9.57 |  |  | 
25 | COc1c(OC(=O)N(C)c2cccc(C)c2)cc2oc3cc4c(c(OC)c3c(=O)c2c1CC=C(C)C)C=CC(C)(C)O4 | 57.5 | 38.81 | 62.3 | 15.51 |  |  | 
26 | COc1c(OC(=O)N(C)c2ccc(C(C)(C)C)cc2)cc2oc3cc4c(c(O)c3c(=O)c2c1CC=C(C)C)C=CC(C)(C)O4 | 38.9 | 12.14 | 63.6 | 18.35 |  |  | 
27 | COc1c(OC(=O)N(C)c2ccccc2)cc2oc3cc4c(c(OC)c3c(=O)c2c1CC=C(C)C)C=CC(C)(C)O4 | 62.7 | 46.32 | 70.9 | 34.72 |  |  | 
28 | COc1c(OC(=O)N(C)c2ccccc2C)cc2oc3cc4c(c(O)c3c(=O)c2c1CC=C(C)C)C=CC(C)(C)O4 | 55.7 | 36.26 | 66.8 | 25.55 |  |  | 
29 | COc1c(OC(=O)N(CC2CC2)c2cccc(Br)c2)cc2oc3cc4c(c(O)c3c(=O)c2c1CC=C(C)C)C=CC(C)(C)O4 | 46.5 | 23.09 | 63.2 | 17.48 |  |  | 
30 | COc1c(OC(=O)N(C)c2ccc(C)cc2)cc2oc3cc4c(c(OC)c3c(=O)c2c1CC=C(C)C)C=CC(C)(C)O4 | 49.1 | 26.81 | 70.2 | 33.3 |  |  | 
31 | CCOc1cccc(N(C)C(=O)Oc2cc3oc4cc5c(c(O)c4c(=O)c3c(CC=C(C)C)c2OC)C=CC(C)(C)O5)c1 | 43.7 | 18.96 | 59.1 | 8.38 |  |  | 
32 | COc1c(OC(=O)N(C)c2cccc(C)c2)cc2oc3cc4c(c(O)c3c(=O)c2c1CC=C(C)C)C=CC(C)(C)O4 | 57.6 | 39.04 | 66.8 | 25.7 |  |  | 
33 | COc1ccccc1N(C)C(=O)Oc1cc2oc3cc4c(c(O)c3c(=O)c2c(CC=C(C)C)c1OC)C=CC(C)(C)O4 | 48.4 | 25.79 | 61.6 | 13.94 |  |  | 
